One test deals with human M4 receptor (Homo sapiens (Human), UniProt P08173). The test is described as follows: In vitro M4 functional assay (intracellular calcium, FLiPR Tetra). It counts as cell-based. Particulars: for EC50: CHOK1 cells stably expressing human M4 receptor and Gα16, calcium flux; for Emax: relative efficacy to an EC100 concentration of acetylcholine, read-out: M4 % RE. The method, then:
(§1) In Vitro M4 &M2 Functional Assay
(§2) The functional activity of compounds at the M4 and M2 receptors was determined by measuring changes in the level of intracellular calcium ions caused by signalling cascades mediated by the receptor. Intracellular Calcium levels were measured using a calcium sensitive fluorescent dye, calcium 5 (Molecular Devices) The changes in fluorescence were monitored by a fluorescent imager, FLiPR Tetra (Molecular devices). Increases in intracellular calcium were readily detected upon activation of both receptors by the muscarinic receptor agonist Acetylcholine.
(§3) CHOK1 cells stably expressing human M4 or M2 receptor and co-expressing the accessory g-protein Gα16 were routinely grown as monolayers in Hams-F12 medium (Invitrogen) supplemented with 10% foetal bovine serum (FBS) (Hyclone), 500 ug/mL Geneticin and 250 ug/mL zeocin (both invitrogen) in 5% CO2 at 37° C. Once confluent is cells cryopreserved by freezing at −186° C. in freezing solution (90% FBS 10% DMSO) (Sigma-Aldrich Co.). Twenty-four hours prior to testing cells resuscitated and freezing media removed via centrifugation, cells then seeded in a black walled clear bottom 384 well plates (Corning) at a density of 15,000 cells/well in Hams F12 media supplemented with 10% FBS. On the day of assay, growth media was removed and replaced with 63 μl of Calcium 5 dye solution (Molecular Devices) in assay buffer (HBSS, 20 mM HEPES, 0.1% BSA, 1 mM Probenecid pH7.4 (Sigma-Aldrich Co.)) per well (each vial of Calcium 5 resuspended in 27 mL of assay buffer). Cells were then incubated for 45 minutes at 37° C., 5% CO2. Compound was serially diluted in DMSO (log/half log) before being diluted 1:20 with assay buffer. 7 μl of compound diluted in assay buffer was then added to cells on FLiPR tetra and fluorescence intensity measured for 5 minutes. EC50 values for compounds were determined from ten point half log scale dose-response studies and represent the concentration of compound required to […] maximal response. Curves were generated using the average of duplicate wells for each data point and analyzed using non-linear regression of four parameter dose response. Percentage Relative efficacy (RE) to an EC100 concentration of acetylcholine was reported for all compounds. The results are set out in Table 3 below in which the term “No Response” means that there was no significant response of calcium flux in the assay indicative of agonism.
A general note: A change in cytosolic calcium serves as a functional read-out for many receptors and channels.

In a further test the target is human M2 receptor (Homo sapiens (Human), UniProt P08172). Briefly: In vitro M2 functional assay (intracellular calcium, FLiPR Tetra). It counts as cell-based. Particulars: for M2 EC50 / EC50: CHOK1 cells stably expressing human M2 receptor and Gα16, calcium flux, No Response = no significant response of calcium flux indicative of agonism; for M2 % RE: relative efficacy to an EC100 concentration of acetylcholine. As to the method: as §1, §2, §3
human M2 receptor, sequence (P08172 whole entry): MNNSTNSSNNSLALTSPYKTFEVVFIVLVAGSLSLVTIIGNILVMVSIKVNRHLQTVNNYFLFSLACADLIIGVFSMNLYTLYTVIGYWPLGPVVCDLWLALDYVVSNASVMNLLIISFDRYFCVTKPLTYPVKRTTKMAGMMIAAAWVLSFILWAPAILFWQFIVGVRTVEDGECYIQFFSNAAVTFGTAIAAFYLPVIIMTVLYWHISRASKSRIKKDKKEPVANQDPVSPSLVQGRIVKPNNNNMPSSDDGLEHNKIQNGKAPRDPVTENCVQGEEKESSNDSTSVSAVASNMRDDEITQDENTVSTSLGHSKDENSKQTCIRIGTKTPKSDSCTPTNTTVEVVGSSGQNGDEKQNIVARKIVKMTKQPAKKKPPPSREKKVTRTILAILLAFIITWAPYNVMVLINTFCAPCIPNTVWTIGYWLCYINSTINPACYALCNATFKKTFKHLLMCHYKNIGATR

Data on 26 compounds can be found in patent publication US10030012B2, “Piperidin-1-yl and azepin-1-yl carboxylates as muscarinic M4 receptor agonists” (Heptares Therapeutics Limited, priority 2013, dated 2018).

Each structure is given as a SMILES string.

human M4 receptor, sequence (P08173 whole entry): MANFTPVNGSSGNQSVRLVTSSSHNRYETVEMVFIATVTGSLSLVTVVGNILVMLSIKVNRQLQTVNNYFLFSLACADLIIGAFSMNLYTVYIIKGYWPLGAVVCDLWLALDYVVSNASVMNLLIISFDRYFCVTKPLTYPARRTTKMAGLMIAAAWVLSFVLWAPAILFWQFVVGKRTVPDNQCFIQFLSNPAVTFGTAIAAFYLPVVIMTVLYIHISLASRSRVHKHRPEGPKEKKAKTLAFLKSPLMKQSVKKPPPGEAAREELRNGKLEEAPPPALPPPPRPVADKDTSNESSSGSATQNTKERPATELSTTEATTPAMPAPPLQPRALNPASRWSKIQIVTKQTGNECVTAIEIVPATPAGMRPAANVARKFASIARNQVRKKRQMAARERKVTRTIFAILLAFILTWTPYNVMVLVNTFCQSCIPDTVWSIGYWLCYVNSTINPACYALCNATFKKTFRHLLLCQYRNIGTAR

The EC50 is the concentration giving half of the maximal effect. Regarding `CCOC(=O)N1CCCC(N2CCC(n3nccc3C(=O)NCC3CC3)CC2)CC1` (centres unmarked) [Example 24, Ethyl 4-(4-{5-[(cyclopropylmethyl)carbamoyl]-1H-pyrazol-1-yl}piperidin-1-yl)azepane-1-carboxylate], at human M4 receptor, the EC50 stood at 1370 nM and the Emax worked out at 45%. Moreover, the “M2 EC50” value on human M2 receptor is “No Response”.

As for `CCOC(=O)N1CCCC(N2CCC(n3nccc3-c3sc(C)nc3C)CC2)CC1` (centres unmarked) [Example 25, Ethyl 4-{4-[5-(dimethyl-1,3-thiazol-5-yl)-1H-pyrazol-1-yl]piperidin-1-yl}azepane-1-carboxylate], at human M4 receptor, the EC50 is 270 nM and the Emax was 46%. Also, the “M2 EC50” value on human M2 receptor is given as “No Response”.

As for `CCOC(=O)N1CCCC(N2CCC(c3nccs3)CC2)CC1` (centres unmarked) [Example 26, Ethyl 4-[4-(1,3-thiazol-2-yl)piperidin-1-yl]azepane-1-carboxylate], on human M4 receptor, the 50% effective concentration (EC50) turned out to be 130 nM and the Emax was found to be 51%. For the same compound, the “M2 EC50” value at human M2 receptor is on record as “No Response”.

Take `CCOC(=O)N1CCCC(N2CCC(n3nccc3C#N)CC2)CC1` (centres unmarked) [Example 27, Ethyl 4-[4-(5-cyano-1H-pyrazol-1-yl)piperidin-1-yl]azepane-1-carboxylate]: at human M4 receptor, the EC50 came out at 320 nM and the Emax was 55%. For the same compound, the “M2 EC50” value at human M2 receptor is “No Response”.

`CCOC(=O)N1CCCC(N2CCC(n3nccc3CNC(C)=O)CC2)CC1` (centres unmarked) [Example 28, Ethyl 4-{4-[5-(acetamidomethyl)-1H-pyrazol-1-yl]piperidin-1-yl}azepane-1-carboxylate]: at human M4 receptor, the EC50 was found to be 1480 nM and the Emax is 59%. Besides, at human M2 receptor, the “M2 EC50” value is on record as “No Response”.

In the case of `CCOC(=O)N1CCC(CN2CC(n3cccn3)C2)CC1` [Example 29, Ethyl 4-{[3-(1H-pyrazol-1-yl)azetidin-1-yl]methyl}piperidine-1-carboxylate], at human M4 receptor, the EC50 came out at 1830 nM and the Emax amounted to 29%. Further, the “M2 EC50” value at human M2 receptor is “No Response”.

For the compound `CCOC(=O)N1CCCC(N2CCC(c3ccncc3)CC2)CC1` (centres unmarked) [Example 30, Ethyl 4-[4-(pyridin-4-yl)piperidin-1-yl]azepane-1-carboxylate], on human M4 receptor, the EC50 was 1660 nM and the Emax worked out at 27%. For the same compound, the “M2 EC50” value at human M2 receptor was “No Response”.

As for `CCOC(=O)N1CCC(N2CCC(c3ccncc3)CC2)CC1` [Example 31, Ethyl 4-[4-(pyridin-4-yl)piperidin-1-yl]piperidine-1-carboxylate], at human M4 receptor, the EC50 is 2260 nM and the Emax worked out at 30%. Moreover, on human M2 receptor, the “M2 EC50” value is recorded as “No Response”.

As for `CCOC(=O)N1CCC(N2CCC(c3cccc(OC)n3)CC2)CC1` [Example 32, Ethyl 4-[4-(6-methoxypyridin-2-yl)piperidin-1-yl]piperidine-1-carboxylate], on human M4 receptor, the EC50 was determined as 220 nM and the Emax came out at 73%. The “M2 EC50” value on human M2 receptor is “No Response”.

With `CCOC(=O)N1CCCC(N2CCC(c3cccc(OC)n3)CC2)CC1` (centres unmarked) [Example 33, Ethyl 4-[4-(6-methoxypyridin-2-yl)piperidin-1-yl]azepane-1-carboxylate], at human M4 receptor, the EC50 was 180 nM and the Emax was 61%. Further, the “M2 EC50” value on human M2 receptor is listed as “No Response”.

On to `CCOC(=O)N1CCC(N2CCC(c3cccnc3OC)CC2)CC1` [Example 34, Ethyl 4-[4-(2-methoxypyridin-3-yl)piperidin-1-yl]piperidine-1-carboxylate], for which, on human M4 receptor, the EC50 came to 90 nM and the Emax turned out to be 90%. In addition, the “M2 EC50” value at human M2 receptor is reported as “No Response”.

As to `CCOC(=O)N1CCCC(N2CCC(c3cccnc3OC)CC2)CC1` (centres unmarked) [Example 35, Ethyl 4-[4-(2-methoxypyridin-3-yl)piperidin-1-yl]azepane-1-carboxylate], on human M4 receptor, the EC50 came out at 30 nM and the Emax is 102%. Further, the “M2 EC50” value at human M2 receptor was “No Response”.

Turning to `CCOC(=O)N1CCC(N2CCC(c3ccnc(C)n3)CC2)CC1` [Example 36, Ethyl 4-[4-(2-methylpyrimidin-4-yl)piperidin-1-yl]piperidine-1-carboxylate], at human M4 receptor, the EC50 was 6730 nM and the Emax was 25%. For the same compound, the “M2 EC50” value at human M2 receptor was “No Response”.

Regarding `CCOC(=O)N1CCC(N2CCC(c3nc(OC)cc(OC)n3)CC2)CC1` [Example 37, Ethyl 4-[4-(4,6-dimethoxypyrimidin-2-yl)piperidin-1-yl]piperidine-1-carboxylate], at human M4 receptor, the EC50 stood at 3340 nM and the Emax amounted to 39%. The “M2 EC50” value on human M2 receptor was “No Response”.

As for `CCOC(=O)N1CCCC(N2CCC(c3ncccc3OC)CC2)CC1` (centres unmarked) [Example 38, Ethyl 4-[4-(3-methoxypyridin-2-yl)piperidin-1-yl]azepane-1-carboxylate], at human M4 receptor, the EC50 worked out at 30 nM and the Emax was 92%. At human M2 receptor, the EC50 came to 160 nM and the “M2 % RE” value is 75%.

For `CCOC(=O)N1CCCC(N2CCC(c3cccn(C)c3=O)CC2)CC1` (centres unmarked) [Example 39, Ethyl 4-[4-(1-methyl-2-oxo-1,2-dihydropyridin-3-yl)piperidin-1-yl]azepane-1-carboxylate], on human M4 receptor, the EC50 was determined as 740 nM and the Emax was found to be 41%. At human M2 receptor, the “M2 EC50” value was “No Response”.

With `CCOC(=O)N1CCCC(N2CCC(c3nccnc3OC)CC2)CC1` (centres unmarked) [Example 40, Ethyl 4-[4-(3-methoxypyrazin-2-yl)piperidin-1-yl]azepane-1-carboxylate], on human M4 receptor, the EC50 worked out at 140 nM and the Emax was 62%. Moreover, the “M2 EC50” value on human M2 receptor is “No Response”.

On to `CCOC(=O)N1CCCC(N2CCC(c3cccnc3C)CC2)CC1` (centres unmarked) [Example 41, Ethyl 4-[4-(2-methylpyridin-3-yl)piperidin-1-yl]azepane-1-carboxylate], for which, at human M4 receptor, the EC50 is 260 nM and the Emax was 54%. In addition, the “M2 EC50” value on human M2 receptor is reported as “No Response”.

With `CCOC(=O)N1CCCC(N2CCC(c3cc(C)cnc3OCC)CC2)CC1` (centres unmarked) [Example 42, Ethyl 4-[4-(2-ethoxy-5-methylpyridin-3-yl)piperidin-1-yl]azepane-1-carboxylate], on human M4 receptor, the EC50 was determined as 20 nM and the Emax turned out to be 82%. Besides, the “M2 EC50” value on human M2 receptor is “No Response”.

On to `CCOC(=O)N1CCCC(N2CCC(c3cc(C(F)(F)F)cnc3OC)CC2)CC1` (centres unmarked) [Example 43, Ethyl 4-{4-[2-methoxy-5-(trifluoromethyl)pyridin-3-yl]piperidin-1-yl}azepane-1-carboxylate], for which, at human M4 receptor, the EC50 was found to be 20 nM and the Emax is 94%. For the same compound, on human M2 receptor, the EC50 amounted to 180 nM and the “M2 % RE” value stood at 62%.

As to `CCOC(=O)N1CCCC(N2CCC(c3ccncc3OC)CC2)CC1` (centres unmarked) [Example 44, Ethyl 4-[4-(3-methoxypyridin-4-yl)piperidin-1-yl]azepane-1-carboxylate], at human M4 receptor, the EC50 was 370 nM and the Emax was 52%. The “M2 EC50” value on human M2 receptor is given as “No Response”.

As to `CCOC(=O)N1CCCC(N2CCC(c3cncc(OC)c3)CC2)CC1` (centres unmarked) [Example 45, Ethyl 4-[4-(5-methoxypyridin-3-yl)piperidin-1-yl]azepane-1-carboxylate], on human M4 receptor, the EC50 worked out at 460 nM and the Emax worked out at 25%. On human M2 receptor, the “M2 EC50” value was “No Response”.

Consider `CCOC(=O)N1CCC(N2CCC(c3cccnc3C)CC2)CC1` [Example 46, Ethyl 4-[4-(2-methylpyridin-3-yl)piperidin-1-yl]piperidine-1-carboxylate], for which, at human M4 receptor, the EC50 was 1550 nM and the Emax amounted to 31%. In addition, the “M2 EC50” value on human M2 receptor is given as “No Response”.

For the compound `CCOC(=O)N1CCC(N2CCC(c3cc(C)cnc3OCC)CC2)CC1` [Example 47, Ethyl 4-[4-(2-ethoxy-5-methylpyridin-3-yl)piperidin-1-yl]piperidine-1-carboxylate], on human M4 receptor, the EC50 stood at 160 nM and the Emax stood at 72%. Besides, the “M2 EC50” value at human M2 receptor is recorded as “No Response”.

For `CCOC(=O)N1CCCC(N2CCC(c3cnccc3OC)CC2)CC1` (centres unmarked) [Example 48, Ethyl 4-[4-(4-methoxypyridin-3-yl)piperidin-1-yl]azepane-1-carboxylate], on human M4 receptor, the EC50 is 250 nM and the Emax came out at 63%. Besides, the “M2 EC50” value at human M2 receptor is listed as “No Response”.

Consider `CCOC(=O)N1CCCC(N2CCC(c3nccnc3N(C)C)CC2)CC1` (centres unmarked) [Example 49, Ethyl 4-{4-[3-(dimethylamino)pyrazin-2-yl]piperidin-1-yl}azepane-1-carboxylate], for which, on human M4 receptor, the EC50 was 210 nM and the Emax stood at 53%. The “M2 EC50” value on human M2 receptor is recorded as “No Response”.
